Reference: patent US12673945B2, “3-((8-((1H-pyrazol-4-yl)amino)imidazo[1,2-a]pyridin-3-yl)ethinyl)-n-phenylbenzamide derivative, method for preparing same, and pharmaceutical composition containing same as active ingredient for prevention or treatment of cancer” (DAEGU-GYEONGBUK MEDICAL INNOVATION FOUNDATION, priority 2020, dated 2026)

Legend:
Experiment in all cases: scanMAX Kinase panel (DiscoverX)
Format in all cases: binding
[1] = target: T1, LCK (Homo sapiens, UniProt P06239); conditions: read-out: % Cont @ 1 uM
T1 construct: purchased DiscoverX scanMAX Kinase panel
In short: (§1)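 One concentration only, 1 μM in DMSO, in a panel-based kinase selectivity format; output given as percentage of control.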

[2] = target: T2, MINK (Homo sapiens, UniProt Q8N4C8); conditions: read-out: % Cont @ 1 uM
T2 construct: purchased DiscoverX scanMAX Kinase panel
In short: as §1

[3] = target: T3, RET (Homo sapiens, UniProt P07949); conditions: read-out: % Cont @ 1 uM
T3 construct: purchased DiscoverX scanMAX Kinase panel
In short: as §1

[4] = target: T4, IRAK1 (Homo sapiens, UniProt P51617); conditions: read-out: % Cont @ 1 uM
T4 construct: purchased DiscoverX scanMAX Kinase panel
In short: as §1

[5] = target: T5, NEK4 (Homo sapiens, UniProt P51957); conditions: read-out: % Cont @ 1 uM
T5 construct: purchased DiscoverX scanMAX Kinase panel
In short: as §1

[6] = target: T6, ZAK (Homo sapiens, UniProt Q9NYL2); conditions: read-out: % Cont @ 1 uM
T6 construct: purchased DiscoverX scanMAX Kinase panel
In short: as §1

[7] = target: T7, p38-beta (Homo sapiens, UniProt Q15759); conditions: read-out: % Cont @ 1 uM
T7 construct: purchased DiscoverX scanMAX Kinase panel
In short: as §1

[8] = target: T8, MUSK (Homo sapiens, UniProt O15146); conditions: read-out: % Cont @ 1 uM
T8 construct: purchased DiscoverX scanMAX Kinase panel
T8 sequence (O15146 24-869): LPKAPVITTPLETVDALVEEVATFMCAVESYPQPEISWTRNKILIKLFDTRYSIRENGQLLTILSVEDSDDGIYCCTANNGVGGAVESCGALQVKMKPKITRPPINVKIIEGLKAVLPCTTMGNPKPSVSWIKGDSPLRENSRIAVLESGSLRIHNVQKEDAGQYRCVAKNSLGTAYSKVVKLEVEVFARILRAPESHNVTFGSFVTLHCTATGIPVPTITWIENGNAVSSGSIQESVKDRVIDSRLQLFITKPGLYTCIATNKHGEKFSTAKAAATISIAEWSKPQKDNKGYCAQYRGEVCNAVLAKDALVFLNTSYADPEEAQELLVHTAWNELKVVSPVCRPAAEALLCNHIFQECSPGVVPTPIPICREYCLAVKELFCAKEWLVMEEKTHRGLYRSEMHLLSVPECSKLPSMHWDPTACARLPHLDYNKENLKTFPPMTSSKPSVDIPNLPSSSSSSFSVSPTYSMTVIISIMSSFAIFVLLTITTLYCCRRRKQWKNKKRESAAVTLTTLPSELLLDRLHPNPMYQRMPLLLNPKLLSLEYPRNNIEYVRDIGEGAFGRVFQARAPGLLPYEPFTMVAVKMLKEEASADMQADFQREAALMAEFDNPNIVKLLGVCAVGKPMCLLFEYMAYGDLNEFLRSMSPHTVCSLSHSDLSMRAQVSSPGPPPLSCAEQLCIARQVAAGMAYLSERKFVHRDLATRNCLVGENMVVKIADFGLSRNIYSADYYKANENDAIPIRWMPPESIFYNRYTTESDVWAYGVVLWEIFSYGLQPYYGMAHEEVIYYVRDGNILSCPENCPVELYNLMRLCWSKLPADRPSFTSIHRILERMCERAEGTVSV
In short: as §1

[9] = target: T9, AURKC (Homo sapiens, UniProt Q9UQB9); conditions: read-out: % Cont @ 1 uM
T9 construct: purchased DiscoverX scanMAX Kinase panel
In short: as §1

[10] = target: T10, EGFR(L747-S752del, P753S) (Homo sapiens, UniProt P00533, DEL747-752/P753S)
T10 construct: purchased DiscoverX scanMAX Kinase panel
In short: as §1

[11] = target: T11, DDR2 (Homo sapiens, UniProt Q16832); conditions: read-out: % Cont @ 1 uM
T11 construct: purchased DiscoverX scanMAX Kinase panel
In short: as §1

[12] = target: T12, SIK (Homo sapiens, UniProt P57059)
T12 construct: purchased DiscoverX scanMAX Kinase panel
In short: as §1

[13] = target: T13, MKNK1 (Homo sapiens, UniProt Q9BUB5); conditions: read-out: % Cont @ 1 uM
T13 construct: purchased DiscoverX scanMAX Kinase panel
T13 sequence (Q9BUB5 whole entry): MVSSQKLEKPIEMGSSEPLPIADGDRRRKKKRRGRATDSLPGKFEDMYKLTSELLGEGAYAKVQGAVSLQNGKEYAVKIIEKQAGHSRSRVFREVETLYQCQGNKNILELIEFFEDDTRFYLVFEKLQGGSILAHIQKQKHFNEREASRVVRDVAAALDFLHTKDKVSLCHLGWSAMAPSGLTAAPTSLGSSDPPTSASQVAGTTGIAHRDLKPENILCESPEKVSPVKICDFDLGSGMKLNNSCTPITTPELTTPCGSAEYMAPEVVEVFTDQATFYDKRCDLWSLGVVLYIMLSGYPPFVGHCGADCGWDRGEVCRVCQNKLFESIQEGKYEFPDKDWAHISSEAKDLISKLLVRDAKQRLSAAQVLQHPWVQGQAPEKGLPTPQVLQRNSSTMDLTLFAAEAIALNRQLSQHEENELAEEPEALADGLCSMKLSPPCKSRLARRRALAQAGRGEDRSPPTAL
In short: as §1

[14] = target: T14, TRKA (Homo sapiens, UniProt P04629); conditions: read-out: % Cont @ 1 uM
T14 construct: purchased DiscoverX scanMAX Kinase panel
In short: as §1

[15] = target: T15, KIT(D816H) (Homo sapiens, UniProt P10721, D816H); conditions: read-out: % Cont @ 1 uM
T15 construct: purchased DiscoverX scanMAX Kinase panel
T15 sequence (P10721 26-976 D816H): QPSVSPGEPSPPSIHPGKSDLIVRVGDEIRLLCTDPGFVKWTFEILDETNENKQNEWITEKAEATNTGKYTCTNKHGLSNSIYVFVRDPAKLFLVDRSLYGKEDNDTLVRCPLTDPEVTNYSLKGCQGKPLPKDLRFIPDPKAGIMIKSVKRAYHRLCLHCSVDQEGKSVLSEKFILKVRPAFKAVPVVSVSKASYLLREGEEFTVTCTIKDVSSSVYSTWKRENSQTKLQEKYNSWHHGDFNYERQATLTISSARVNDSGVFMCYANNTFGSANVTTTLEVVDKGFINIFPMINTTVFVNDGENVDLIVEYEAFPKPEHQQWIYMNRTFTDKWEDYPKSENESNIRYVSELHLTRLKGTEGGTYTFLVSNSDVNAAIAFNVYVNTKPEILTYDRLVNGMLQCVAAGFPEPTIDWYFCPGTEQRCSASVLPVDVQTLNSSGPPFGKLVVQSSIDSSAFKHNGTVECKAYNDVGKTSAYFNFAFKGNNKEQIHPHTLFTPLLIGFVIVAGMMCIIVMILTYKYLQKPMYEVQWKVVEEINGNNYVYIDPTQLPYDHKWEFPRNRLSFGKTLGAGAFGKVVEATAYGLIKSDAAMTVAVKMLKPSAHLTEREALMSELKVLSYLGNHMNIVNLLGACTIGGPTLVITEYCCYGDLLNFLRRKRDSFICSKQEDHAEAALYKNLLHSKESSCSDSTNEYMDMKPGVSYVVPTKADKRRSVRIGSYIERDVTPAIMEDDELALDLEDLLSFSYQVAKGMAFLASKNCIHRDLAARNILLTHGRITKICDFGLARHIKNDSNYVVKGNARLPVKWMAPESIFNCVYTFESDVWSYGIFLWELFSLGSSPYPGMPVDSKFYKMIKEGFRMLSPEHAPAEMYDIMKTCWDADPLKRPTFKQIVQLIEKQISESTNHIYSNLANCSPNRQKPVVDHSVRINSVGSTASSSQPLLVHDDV
In short: as §1

[16] = target: T16, p38-delta (Homo sapiens, UniProt O15264); conditions: read-out: % Cont @ 1 uM
T16 construct: purchased DiscoverX scanMAX Kinase panel
In short: as §1

[17] = target: T17, CIT (Homo sapiens, UniProt O14578)
T17 construct: purchased DiscoverX scanMAX Kinase panel
In short: as §1

[18] = target: T18, TAOK3 (Homo sapiens, UniProt Q9H2K8); conditions: read-out: % Cont @ 1 uM
T18 construct: purchased DiscoverX scanMAX Kinase panel
In short: as §1

[19] = target: T19, EGFR(L858R) (Homo sapiens, UniProt P00533, L858R)
T19 construct: purchased DiscoverX scanMAX Kinase panel
In short: as §1

[20] = target: T20, RIOK3 (Homo sapiens, UniProt O14730); conditions: read-out: % Cont @ 1 uM
T20 construct: purchased DiscoverX scanMAX Kinase panel
In short: as §1

[21] = target: T21, TRKB (Homo sapiens, UniProt Q16620); conditions: read-out: % Cont @ 1 uM
T21 construct: purchased DiscoverX scanMAX Kinase panel
In short: as §1

[22] = target: T22, ABL1(F317I)-nonphosphorylated (Homo sapiens, UniProt P00519, F317I); conditions: read-out: % Cont @ 1 uM
T22 construct: purchased DiscoverX
In short: as §1

[23] = target: T23, LIMK1 (Homo sapiens, UniProt P53667); conditions: read-out: % Cont @ 1 uM
T23 construct: purchased DiscoverX scanMAX Kinase panel
In short: as §1

[24] = target: T24, FGFR2 (Homo sapiens, UniProt P21802); conditions: read-out: % Cont @ 1 uM
T24 construct: purchased DiscoverX scanMAX Kinase panel
In short: as §1

[25] = target: T25, LTK (Homo sapiens, UniProt P29376); conditions: read-out: % Cont @ 1 uM
T25 construct: purchased DiscoverX scanMAX Kinase panel
In short: as §1

[26] = target: T26, TAOK1 (Homo sapiens, UniProt Q7L7X3); conditions: read-out: % Cont @ 1 uM
T26 construct: purchased DiscoverX scanMAX Kinase panel
In short: as §1

[27] = target: T27, BRK (Homo sapiens, UniProt Q13882); conditions: read-out: % Cont @ 1 uM
T27 construct: purchased DiscoverX scanMAX Kinase panel
In short: as §1

[28] = target: T28, CSF1R (Homo sapiens, UniProt P07333); conditions: read-out: % Cont @ 1 uM
T28 construct: purchased DiscoverX scanMAX Kinase panel
In short: as §1

[29] = target: T29, FLT3(R834Q) (Homo sapiens, UniProt P36888, R834Q); conditions: read-out: % Cont @ 1 uM
T29 construct: purchased DiscoverX scanMAX Kinase panel
In short: as §1

[30] = target: T30, LRRK2 (Homo sapiens, UniProt Q5S007); conditions: read-out: % Cont @ 1 uM
T30 construct: purchased DiscoverX scanMAX Kinase panel
T30 sequence (Q5S007 whole entry): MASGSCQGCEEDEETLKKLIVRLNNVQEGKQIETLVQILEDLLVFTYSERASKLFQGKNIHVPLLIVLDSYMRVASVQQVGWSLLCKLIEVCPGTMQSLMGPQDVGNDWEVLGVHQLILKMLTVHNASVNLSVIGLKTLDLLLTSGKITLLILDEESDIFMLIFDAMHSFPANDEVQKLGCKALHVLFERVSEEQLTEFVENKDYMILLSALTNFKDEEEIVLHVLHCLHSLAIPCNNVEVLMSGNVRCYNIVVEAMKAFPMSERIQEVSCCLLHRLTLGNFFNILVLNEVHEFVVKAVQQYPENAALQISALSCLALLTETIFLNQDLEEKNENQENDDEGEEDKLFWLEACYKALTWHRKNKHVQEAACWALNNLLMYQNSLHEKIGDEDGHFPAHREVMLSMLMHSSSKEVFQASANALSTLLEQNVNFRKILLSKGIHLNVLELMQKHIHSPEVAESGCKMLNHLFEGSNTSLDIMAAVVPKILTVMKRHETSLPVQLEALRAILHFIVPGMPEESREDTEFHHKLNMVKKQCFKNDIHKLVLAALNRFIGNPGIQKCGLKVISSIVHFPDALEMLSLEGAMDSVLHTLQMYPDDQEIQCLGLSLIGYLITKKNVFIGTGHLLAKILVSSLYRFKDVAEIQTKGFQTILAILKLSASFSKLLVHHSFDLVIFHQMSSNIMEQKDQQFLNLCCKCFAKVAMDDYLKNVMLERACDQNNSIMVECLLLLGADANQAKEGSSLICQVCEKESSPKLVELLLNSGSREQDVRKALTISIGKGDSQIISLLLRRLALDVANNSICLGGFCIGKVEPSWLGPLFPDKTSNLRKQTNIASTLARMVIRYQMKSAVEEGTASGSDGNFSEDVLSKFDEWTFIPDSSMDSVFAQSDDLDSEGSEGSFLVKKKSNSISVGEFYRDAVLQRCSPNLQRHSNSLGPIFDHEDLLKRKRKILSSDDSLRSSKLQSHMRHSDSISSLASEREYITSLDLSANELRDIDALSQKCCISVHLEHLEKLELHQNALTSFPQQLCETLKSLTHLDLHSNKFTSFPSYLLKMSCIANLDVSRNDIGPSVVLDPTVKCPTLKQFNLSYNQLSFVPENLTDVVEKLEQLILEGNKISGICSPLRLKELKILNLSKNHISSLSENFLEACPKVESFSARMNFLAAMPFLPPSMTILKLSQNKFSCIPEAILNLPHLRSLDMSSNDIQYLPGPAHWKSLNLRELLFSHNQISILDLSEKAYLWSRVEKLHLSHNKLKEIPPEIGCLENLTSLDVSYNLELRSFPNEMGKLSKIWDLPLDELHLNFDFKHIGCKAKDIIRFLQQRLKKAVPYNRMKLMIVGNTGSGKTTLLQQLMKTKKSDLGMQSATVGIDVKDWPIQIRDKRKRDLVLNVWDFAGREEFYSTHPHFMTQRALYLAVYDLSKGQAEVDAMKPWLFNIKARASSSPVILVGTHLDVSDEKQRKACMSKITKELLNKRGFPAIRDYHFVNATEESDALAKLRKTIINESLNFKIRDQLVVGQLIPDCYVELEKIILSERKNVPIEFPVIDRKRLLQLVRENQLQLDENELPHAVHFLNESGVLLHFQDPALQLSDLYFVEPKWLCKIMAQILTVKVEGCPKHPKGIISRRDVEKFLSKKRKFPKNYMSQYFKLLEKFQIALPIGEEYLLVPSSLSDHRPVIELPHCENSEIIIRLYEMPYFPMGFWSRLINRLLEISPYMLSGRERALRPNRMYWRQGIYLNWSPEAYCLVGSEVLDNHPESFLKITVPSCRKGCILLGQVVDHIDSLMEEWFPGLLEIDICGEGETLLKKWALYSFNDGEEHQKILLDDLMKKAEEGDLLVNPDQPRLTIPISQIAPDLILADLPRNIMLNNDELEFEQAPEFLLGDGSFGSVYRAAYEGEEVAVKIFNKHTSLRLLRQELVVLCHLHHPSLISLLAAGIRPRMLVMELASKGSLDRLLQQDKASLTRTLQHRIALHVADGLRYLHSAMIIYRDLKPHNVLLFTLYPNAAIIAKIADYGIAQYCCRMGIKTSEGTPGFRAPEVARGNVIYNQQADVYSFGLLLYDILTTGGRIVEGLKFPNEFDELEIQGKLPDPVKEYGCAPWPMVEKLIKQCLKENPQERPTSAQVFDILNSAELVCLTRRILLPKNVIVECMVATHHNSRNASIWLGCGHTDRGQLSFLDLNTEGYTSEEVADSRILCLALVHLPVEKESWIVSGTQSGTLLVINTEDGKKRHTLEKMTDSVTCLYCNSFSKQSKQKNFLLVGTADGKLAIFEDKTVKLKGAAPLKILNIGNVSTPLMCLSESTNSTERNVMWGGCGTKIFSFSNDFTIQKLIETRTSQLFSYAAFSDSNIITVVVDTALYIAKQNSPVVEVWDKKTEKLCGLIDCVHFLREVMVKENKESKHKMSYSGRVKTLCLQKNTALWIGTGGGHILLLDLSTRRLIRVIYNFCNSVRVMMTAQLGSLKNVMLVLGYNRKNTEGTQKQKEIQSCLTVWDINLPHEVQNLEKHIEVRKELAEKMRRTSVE
In short: as §1

[31] = target: T31, EGFR(S752-I759del) (Homo sapiens, UniProt P00533, DEL752-759)
T31 construct: purchased DiscoverX scanMAX Kinase panel
In short: as §1

[32] = target: T32, KIT(D816V) (Homo sapiens, UniProt P10721, D816V); conditions: read-out: % Cont @ 1 uM
T32 construct: purchased DiscoverX scanMAX Kinase panel
T32 sequence (P10721 26-976 D816V): as the sequence (P10721 26-976 D816H) above, with H791V counted along it
In short: as §1

[33] = target: T33, RIPK2 (Homo sapiens, UniProt O43353); conditions: read-out: % Cont @ 1 uM
T33 construct: purchased DiscoverX scanMAX Kinase panel
In short: as §1

[34] = target: T34, BMX (Homo sapiens, UniProt P51813); conditions: read-out: % Cont @ 1 uM
T34 construct: purchased DiscoverX scanMAX Kinase panel
In short: as §1

[35] = target: T35, EGFR(L747-T751del, Sins) (Homo sapiens, UniProt P00533, DEL747-750/T751S)
T35 construct: purchased DiscoverX scanMAX Kinase panel
In short: as §1

[36] = target: T36, FLT3(K663Q) (Homo sapiens, UniProt P36888, K663Q); conditions: read-out: % Cont @ 1 uM
T36 construct: purchased DiscoverX scanMAX Kinase panel
In short: as §1

[37] = target: T37, PFCDPK1(P. falciparum) (Plasmodium falciparum, UniProt P62344); conditions: read-out: % Cont @ 1 uM
T37 construct: purchased DiscoverX scanMAX Kinase panel
In short: as §1

[38] = target: T38, IKK-beta (Homo sapiens, UniProt O14920); conditions: read-out: % Cont @ 1 uM
T38 construct: purchased DiscoverX scanMAX Kinase panel
In short: as §1

[39] = target: T39, ABL2 (Homo sapiens, UniProt P42684); conditions: read-out: % Cont @ 1 uM
T39 construct: purchased DiscoverX scanMAX Kinase panel
In short: as §1

Work on `Cc1cn(-c2cc(NC(=O)c3cc(C#Cc4cnc5c(Nc6cnn(C)c6)cccn45)c(C)cc3F)cc(C(F)(F)F)c2)cn1` [Example 4, 2-fluoro-4-methyl-N-(3-(4-methyl-1H-imidazol-1-yl)-5-(trifluoromethyl)phenyl)-5-((8-((1-methyl-1H-pyrazol-4-yl)amino)imidazo[1,2-a]pyridin-3-yl)ethynyl)benzamide] yielded a remaining binding at 1 µM [1] of 0.4%, a percent of control binding at 1 µM [2] of 88% and a remaining binding at 1 µM [3] of 0.2%. The percent of control binding at 1 µM [4] was 100%, the remaining binding at 1 µM [5] was 90% and the remaining binding at 1 µM [6] was 8.1%. The remaining binding at 1 µM [7] was 15%, the remaining binding at 1 µM [8] was 46% and the remaining binding at 1 µM [9] was 39%. The “% Cont @ 1 uM” value [10] was 40%, the remaining binding at 1 µM [11] was 6.5% and the “% Cont @ 1 uM” value [12] was 14%. It also gave a remaining binding at 1 µM [13] of 78%, a remaining binding at 1 µM [14] of 2.6% and a percent of control binding at 1 µM [15] of 53%. For the same compound, the percent of control binding at 1 µM [16] was 92%, the “% Cont @ 1 uM” value [17] was 0.45% and the remaining binding at 1 µM [18] was 12%. The “% Cont @ 1 uM” value [19] was 57%, the remaining binding at 1 µM [20] was 40% and the remaining binding at 1 µM [21] was 7.7%. For the same compound, the remaining binding at 1 µM [22] was 2.8%, the percent of control binding at 1 µM [23] was 75% and the remaining binding at 1 µM [24] was 61%. The remaining binding at 1 µM [25] was 8.7%, the remaining binding at 1 µM [26] was 96% and the remaining binding at 1 µM [27] was 78%. The remaining binding at 1 µM [28] was 2.5%, the remaining binding at 1 µM [29] was 34% and the remaining binding at 1 µM [30] was 92%. The “% Cont @ 1 uM” value [31] was 30%, the percent of control binding at 1 µM [32] was 61% and the remaining binding at 1 µM [33] was 37%. For the same compound, the remaining binding at 1 µM [34] was 3.6%, the “% Cont @ 1 uM” value [35] was 28% and the remaining binding at 1 µM [36] was 2.8%. It also gave a remaining binding at 1 µM [37] of 48%, a percent of control binding at 1 µM [38] of 56% and a remaining binding at 1 µM [39] of 2.9%.
